# According to patent publication US11116774B2, “Modulators of toll-like receptors for the treatment of HIV” (Gilead Sciences, Inc., priority 2014, dated 2021):
# Where two headings read alike, the source gives them in different places.
# Legend:
# [1] = tested on: HIV-1 expression in PBMC cultures from HIV-1 infected donors on cART; assay: Induced HIV-1 expression in PBMC cultures from HIV-1 infected donors on cART (Example 208); type: cell-based, human; conditions: Tables 7-11; for fold induction at 0.01 µM / fold induction at 0.156 µM / fold induction at 2.5 µM: Human immunodeficiency virus 1, PBMC; for fold induction at 0.01 µM: read-out: Fold HIV-1 Induction, Geometric Mean, 0.01 μM
# Method: Isolated PBMCs were treated with various concentrations (0.1, 1, and 10 μM) of the TLR7 modulating compounds (compounds of Example 4 and Example 49) or dimethyl sulfoxide (DMSO) treated (vehicle control) for 4 to 5 days. The cultures were maintained in the presence of antivirals (elvitegravir and efavirenz at 100 nM each) to prevent viral spread and amplification in order to measure initial virus production (latency reversal) created by the TLR7 modulating compounds. At the end of the incubation period cell-free culture supernatants were harvested and HIV-1 RNA levels were quantified by the COBAS® AmpliPrep/COBAS® TaqMan HIV-1 Test, v2.0 (Roche).
# Using the method described above in Example 208, HIV-1 expression in PBMC cultures derived from four additional HIV-1 infected donors on cART were tested in the presence of the compounds of Examples 4, 29, 120, 121, 122, 123, 124, resiquimod, and imiquimod.
# [2] = tested on: polyfunctional proliferating CD8 T cells (CFSE low, IFNg+, TNFa+); assay: Induction of HIV-specific polyfunctional CD8 T cells by combination with an IDO1 inhibitor (Example 217); type: cell-based, human
# Method: PBMCs from 4 HIV-infected donors (Donor IDs 180-183) on suppressive cART were isolated, as described previously, stained with CFSE, and treated with 500 ng/ml 15-mer peptide pools derived from overlapping HIV gag, pol, nef, and env consensus peptides (JPT Peptide Technologies GmbH). PBMC cultures were treated with DMSO or the compound of Example 49 (GS-9620) at 0.1 uM. In some cultures treated with Example 49, the IDO1 small molecule inhibitor, INCB024360, was combined at 2 μM. Cells were incubated at 37° C. for 8 days, then split into duplicate sets and stained in DPBS with LIVE/DEAD Fixable Aqua Dead Cell Stain (Life Technologies). The immune recall response was performed as previously described. FACS was performed on a LSR Fortessa (BD Biosciences) and data analysis was done with FlowJo software (TreeStar). Data was plotted and statistical analysis was done with GraphPad Prism software (GraphPad).
# [3] = read-out: Fold HIV-1 Induction, Geometric Mean, 0.156 μM, donors 152-155
# [4] = read-out: Fold HIV-1 Induction, Geometric Mean, 2.5 μM, donors 152-155
Compound,fold induction at 0.01 µM ([1]; donors 152-155),"fold induction at 0.156 µM [1, 3]","fold induction at 2.5 µM [1, 4]",Donors with ≥2-fold HIV-1 Induction ([1]; 0.01 μM),Donors with ≥2-fold HIV-1 Induction ([1]; 0.156 μM),Donors with ≥2-fold HIV-1 Induction ([1]; 2.5 μM),"fold induction at 2.5 µM ([1]; 96 h, read-out: Fold HIV-1 Induction, 2.5 μM, per donor, supernatants Day 4, PBMCs added to pre-plated compounds)",further increase of mean level of polyfunctional proliferating CD8 T cells (TLR7 only vs. TLR7+IDO1) [2] [%],"fold induction at 0.156 µM ([1]; 96 h, read-out: Fold HIV-1 Induction, 0.156 μM, per donor, supernatants Day 4, PBMCs added to pre-plated compounds)"
"CCOCc1nc2c(N)nc3ccccc3c2n1CC(C)(C)O [resiquimod, reference compound]",5,6.9,7.4,–,–,–,–,–,–
"COCCOc1nc(N)c2nc(O)n(Cc3ccccc3)c2n1 [Example 122, 6-amino-9-benzyl-2-(2-methoxyethoxy)-9H-purin-8-ol, reference compound]",5,4.8,6.9,3 of 4,3 of 4,4 of 4,–,–,–
"COCCOc1cc2c([nH]c(=O)n2Cc2ccc(-c3ccc(CN4CCCC4)cc3)cc2)c(N)n1 [Example 120, 4-amino-6-(2-methoxyethoxy)-1-((4′-(pyrrolidin-1-ylmethyl)-[1,1-biphenyl]-4-yl)methyl)-1H-imidazo[4,5-c]pyridin-2(3H)-one]",3.9,5.5,4,4 of 4,4 of 4,4 of 4,–,–,–
"COCCOc1nc(N)c2[nH]c(=O)n(Cc3ccc(-c4ccc(CN5CCCC5)cc4)cc3)c2c1Cl [Example 121, 4-amino-7-chloro-6-(2-methoxyethoxy)-1-((4′-(pyrrolidin-1-ylmethyl)-[1,1-biphenyl]-4-yl)methyl)-1H-imidazo[4,5-c]pyridin-2(3H)-one]",1.3,1.3,2.9,2 of 4,2 of 4,4 of 4,–,–,–
"Nc1nc(=O)c2sc(=O)n([C@@H]3O[C@H](CO)C[C@H]3O)c2[nH]1 [Example 124, 5-amino-3-((2R,3R,5S)-3-hydroxy-5-(hydroxymethyl)tetrahydrofuran-2-yl)thiazolo[4,5-d]pyrimidine-2,7(3H,4H)-dione, reference compound]",3.7,1.8,1.6,3 of 4,2 of 4,2 of 4,–,–,–
"CCc1nc2c(N)nc3ccccc3c2n1CCCCNS(C)(=O)=O [Example 123, N-(4-(4-amino-2-ethyl-1H-imidazo[4,5-c]quinolin-1-yl)butyl)methane sulfonamide, reference compound]",1.9,3.4,5.1,2 of 4,3 of 4,4 of 4,3.3,–,–
"NS(=O)(=O)NCCNc1nonc1C(=NO)Nc1ccc(F)c(Br)c1 [INCB024360, reference compound]",–,–,–,–,–,–,–,70,–
"CC(C)Cn1cnc2c(N)nc3ccccc3c21 [imiquimod, reference compound]",4.3,5.4,4.8,4 of 4,4 of 4,3 of 4,–,–,4.4
